Calls of active or inactive are those of the source.
Tests used:
[1] = molecular target: T1, DNA repair and recombination protein RAD54-like (Homo sapiens, UniProt Q92698); assay: inhibitors of human RAD54 branch migration, confirmation, biochemical, fluorescence, cherry-picked samples, dose series (AID 651657); type: functional
T1 sequence (Q92698 whole entry): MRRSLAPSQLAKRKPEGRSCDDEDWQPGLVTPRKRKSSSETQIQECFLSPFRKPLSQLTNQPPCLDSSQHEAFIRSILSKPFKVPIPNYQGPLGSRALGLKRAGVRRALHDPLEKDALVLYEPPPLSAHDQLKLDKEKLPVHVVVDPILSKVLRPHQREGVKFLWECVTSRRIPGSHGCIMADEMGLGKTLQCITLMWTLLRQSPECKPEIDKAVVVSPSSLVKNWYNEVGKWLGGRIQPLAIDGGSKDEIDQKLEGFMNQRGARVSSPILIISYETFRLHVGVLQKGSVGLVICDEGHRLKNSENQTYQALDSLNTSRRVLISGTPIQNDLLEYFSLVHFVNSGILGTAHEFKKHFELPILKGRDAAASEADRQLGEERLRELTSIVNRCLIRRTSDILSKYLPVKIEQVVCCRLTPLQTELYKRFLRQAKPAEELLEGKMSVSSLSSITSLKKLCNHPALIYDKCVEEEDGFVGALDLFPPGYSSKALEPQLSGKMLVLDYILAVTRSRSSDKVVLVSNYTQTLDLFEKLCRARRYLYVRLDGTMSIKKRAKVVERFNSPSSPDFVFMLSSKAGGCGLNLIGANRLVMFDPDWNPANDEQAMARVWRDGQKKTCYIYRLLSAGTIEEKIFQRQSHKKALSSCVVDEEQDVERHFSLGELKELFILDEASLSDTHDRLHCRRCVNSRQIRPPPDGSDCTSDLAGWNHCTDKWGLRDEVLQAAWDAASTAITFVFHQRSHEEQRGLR

Cytochrome P450 2D6 = Cytochrome P450 2D6 (Homo sapiens, UniProt P10635);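 further: CYP2D6 member of a cytochrome P450 panel assay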
[2] = molecular target: Glucose-6-phosphate 1-dehydrogenase (Homo sapiens, UniProt P11413); assay: human G6PD enzyme inhibitors, dose response, selectivity assay for P. falciparum G6PD inhibitor project, biochemical, fluorescence (AID 504792); type: functional
[3] = molecular target: Ras and Rab interactor 1/Tyrosine-protein kinase ABL1 (Homo sapiens, UniProt P00519+Q13671); type: functional;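 further: biochemical TR-FRET dose-response test measuring inhibition of binding between Rin1 and Abl proteins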
Genome polyprotein = Genome polyprotein (dengue virus type 2, UniProt P29990); assay: Dengue-2 NS5 methyltransferase inhibitors, primary screen, biochemical, confirmation dose response (AID 588689); type: functional
[4] = molecular target: Beta-2 adrenergic receptor (Homo sapiens, UniProt P07550); assay: beta2AR agonists driving receptor internalization, dose response, cell-based, FAP fluorogen, flow cytometry, cherry pick 1 (AID 588763); type: functional
[5] = molecular target: T2, RNA-binding protein pos-1 (Caenorhabditis elegans, UniProt G5EF15); assay: inhibitors of POS-1/mex-3 RNA binding, dose response, biochemical, fluorescence polarization (AID 1964);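 further: purified POS-1 fused to maltose binding protein made in E. coli; potency of compounds blocking POS-1 binding to fluorescent RNA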
T2 sequence (G5EF15 whole entry): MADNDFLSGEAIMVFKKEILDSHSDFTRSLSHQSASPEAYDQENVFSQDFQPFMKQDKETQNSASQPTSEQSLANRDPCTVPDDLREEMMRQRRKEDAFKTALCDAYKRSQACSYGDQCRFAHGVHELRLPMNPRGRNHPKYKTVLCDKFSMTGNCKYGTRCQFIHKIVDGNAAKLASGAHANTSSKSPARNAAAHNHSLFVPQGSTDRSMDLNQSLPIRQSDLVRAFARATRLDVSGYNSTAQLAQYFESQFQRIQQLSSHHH

[6] = molecular target: T3, Zinc finger protein mex-5 (Caenorhabditis elegans, UniProt Q9XUB2); assay: MEX-5/TCR-2 RNA interaction inhibitors, dose response, biochemical, C. elegans, fluorescence polarization (AID 1960)
T3 sequence (Q9XUB2 whole entry): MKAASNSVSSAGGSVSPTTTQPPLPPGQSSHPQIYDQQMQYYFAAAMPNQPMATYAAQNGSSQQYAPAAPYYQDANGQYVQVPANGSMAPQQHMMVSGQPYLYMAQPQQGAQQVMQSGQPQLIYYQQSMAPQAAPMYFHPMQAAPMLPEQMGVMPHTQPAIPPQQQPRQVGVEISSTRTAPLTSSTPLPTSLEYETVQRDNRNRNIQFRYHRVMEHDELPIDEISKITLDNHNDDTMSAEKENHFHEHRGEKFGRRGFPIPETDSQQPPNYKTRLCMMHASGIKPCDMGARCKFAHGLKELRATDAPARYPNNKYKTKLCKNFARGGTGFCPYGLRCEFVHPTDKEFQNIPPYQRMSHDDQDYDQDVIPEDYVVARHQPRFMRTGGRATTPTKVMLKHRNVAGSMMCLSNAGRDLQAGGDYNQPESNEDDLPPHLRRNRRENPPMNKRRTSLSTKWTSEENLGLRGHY

[7] = molecular target: T4, Endoribonuclease toxin MazF (Escherichia coli K-12, UniProt P0AE70); assay: MazF toxin RNase activators, dose response, biochemical, fluorescence, single-stranded RNA substrate, uHTS hits (AID 588481); type: functional
T4 sequence (P0AE70 whole entry): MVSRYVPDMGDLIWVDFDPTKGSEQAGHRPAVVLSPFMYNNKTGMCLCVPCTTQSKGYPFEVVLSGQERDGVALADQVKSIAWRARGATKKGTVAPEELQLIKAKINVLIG

[8] = molecular target: T4, Endoribonuclease toxin MazF; assay: fluorescent RNA oligo signal without MazF, dose response, counter-screen for MazEF activator project, biochemical, fluorescence, single-stranded RNase substrate (AID 588502); type: functional
[9] = molecular target: T5, Corticotropin-releasing factor receptor 2/Corticotropin-releasing factor-binding protein (Homo sapiens, UniProt P24387+Q13324); assay: activators of CRF receptor 2 with binding protein – uHTS hits, confirmation (AID 602473); type: functional; settings: read-out: EC50_Mean
T5 sequence (Q13324 whole entry): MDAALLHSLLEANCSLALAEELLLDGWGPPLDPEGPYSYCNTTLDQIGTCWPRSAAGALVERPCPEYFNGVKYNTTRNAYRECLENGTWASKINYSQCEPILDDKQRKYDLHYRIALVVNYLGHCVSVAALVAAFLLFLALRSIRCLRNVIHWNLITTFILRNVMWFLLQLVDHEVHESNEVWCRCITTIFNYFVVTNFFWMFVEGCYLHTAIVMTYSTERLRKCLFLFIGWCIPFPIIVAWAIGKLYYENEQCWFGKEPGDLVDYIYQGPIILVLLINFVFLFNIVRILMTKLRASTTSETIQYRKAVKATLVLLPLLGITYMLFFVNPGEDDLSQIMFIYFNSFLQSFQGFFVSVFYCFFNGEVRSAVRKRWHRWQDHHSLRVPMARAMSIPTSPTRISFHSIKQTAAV
T5 sequence (P24387 whole entry): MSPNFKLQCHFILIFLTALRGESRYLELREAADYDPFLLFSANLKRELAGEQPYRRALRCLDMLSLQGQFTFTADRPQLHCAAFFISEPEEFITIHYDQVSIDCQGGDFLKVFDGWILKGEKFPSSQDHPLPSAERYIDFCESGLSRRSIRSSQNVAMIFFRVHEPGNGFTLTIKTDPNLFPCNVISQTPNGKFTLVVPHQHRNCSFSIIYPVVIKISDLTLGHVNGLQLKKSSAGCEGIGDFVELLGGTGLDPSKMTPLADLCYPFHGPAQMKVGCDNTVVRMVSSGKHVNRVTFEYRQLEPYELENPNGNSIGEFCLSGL

Cytochrome P450 3A4 = Cytochrome P450 3A4 (Homo sapiens, UniProt P08684);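 further: CYP3A4 tested as one member of a cytochrome P450 panel screen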
Cytochrome P450 2C9 = Cytochrome P450 2C9 (Homo sapiens, UniProt P11712)
[10] = ARNT/TACC3 interaction disruptors, potency, confirmation, biochemical, AlphaScreen, cherry-picked samples (AID 651703); type: functional, Homo sapiens;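 further: His-tagged ARNT PAS-B domain paired with GST-TACC3 E629A dimer coactivator fragment; potency of inhibitors that break up the complex and lower AlphaScreen signal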
Cytochrome P450 2C19 = Cytochrome P450 2C19 (Homo sapiens, UniProt P33261); assay: Cytochrome panel assay with activity outcomes. Panel member name: p450-cyp2c19 Compounds with AC50 equal or less than 10 uM are considered active; type: functional
Paired box protein Pax-8 = Paired box protein Pax-8 (Homo sapiens, UniProt Q06710); assay: inhibitors of PAX8-driven TPO luciferase reporter, dose response, RMG-I cells, cherry-pick (AID 687027); type: functional, cell-based;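 further: luciferase reporter driven by Pax8 target thyroperoxidase promoter measured by SteadyGlo luminescence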
HEK293 [11] = assay: NOD1 signaling inhibitors, primary screen, cell-based, luminescence, uHTS (AID 1578); type: functional; settings: Homo sapiens
HEK293 [12] = assay: cells; type: functional, cell-based; settings: Homo sapiens
HEK293 [13] = assay: cells; type: functional, cell-based; settings: Homo sapiens; remark: listed apart in the source
[14] = molecular target: Nucleotide-binding oligomerization domain-containing protein 2 (Homo sapiens, UniProt Q9HC29); assay: NOD2 signaling inhibitors, cell-based, luminescence, uHTS, HEK293 (AID 1566); type: functional
HEK293 [15] = assay: NOD2 signaling inhibitors in MDP-stimulated cells, cell-based, uHTS, luminescence (AID 2001); type: functional; settings: Homo sapiens
[16] = inhibitors of intracellular T. cruzi replication, confirmation, NIH3T3 host cells, beta-gal luminescence (AID 2044); type: functional, cell-based;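 further: intracellular parasites grown in NIH/3T3 mouse fibroblasts as host cells; luminescent beta-galactosidase reporter signal from transgenic T. cruzi replicating inside host cells; inhibitors lower the luminescence signal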
HEK293 [17] = assay: cells; type: functional, cell-based; settings: Homo sapiens; remark: listed apart in the source
[18] = cytotoxicity toward NIH3T3 fibroblasts, dose response, counter-screen, cell-based, ATP luminescence, mouse fibroblasts (AID 2010); type: functional;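 further: cells exposed to compound for about 90 hours before reading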
Fatty acid synthase [19] = molecular target: T6, Fatty acid synthase (Homo sapiens, UniProt P49327); assay: FAS thioesterase domain inhibitors, dose response, biochemical, endpoint fluorescence intensity, uHTS hits (AID 624327); type: functional;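 further: fluorescence from hydrolysis of an O-methyl fluorescein acyl ester substrate by the enzyme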
Fatty acid synthase [20] = molecular target: T6, Fatty acid synthase; assay: FAS thioesterase domain inhibitors, dose response, biochemical, kinetic fluorescence intensity (AID 624326); type: functional;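 further: rate of fluorescence rise from hydrolysis of a fluorogenic O-methyl fluorescein ester substrate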

Sequence of Cytochrome P450 2D6 (P10635 whole entry): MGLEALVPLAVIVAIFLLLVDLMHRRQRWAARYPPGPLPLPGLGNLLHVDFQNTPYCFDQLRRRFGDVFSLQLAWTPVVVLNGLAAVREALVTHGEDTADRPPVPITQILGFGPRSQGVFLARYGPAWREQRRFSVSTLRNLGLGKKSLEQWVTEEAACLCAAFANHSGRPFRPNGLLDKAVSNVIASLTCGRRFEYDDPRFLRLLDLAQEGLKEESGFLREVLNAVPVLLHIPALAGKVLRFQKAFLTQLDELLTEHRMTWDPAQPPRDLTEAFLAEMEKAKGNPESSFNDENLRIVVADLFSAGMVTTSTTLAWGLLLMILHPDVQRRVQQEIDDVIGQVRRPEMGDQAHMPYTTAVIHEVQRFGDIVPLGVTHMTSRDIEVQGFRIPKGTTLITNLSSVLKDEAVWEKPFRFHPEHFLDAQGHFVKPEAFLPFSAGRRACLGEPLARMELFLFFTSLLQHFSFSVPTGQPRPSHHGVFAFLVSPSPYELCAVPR
Sequence of Glucose-6-phosphate 1-dehydrogenase (P11413 whole entry): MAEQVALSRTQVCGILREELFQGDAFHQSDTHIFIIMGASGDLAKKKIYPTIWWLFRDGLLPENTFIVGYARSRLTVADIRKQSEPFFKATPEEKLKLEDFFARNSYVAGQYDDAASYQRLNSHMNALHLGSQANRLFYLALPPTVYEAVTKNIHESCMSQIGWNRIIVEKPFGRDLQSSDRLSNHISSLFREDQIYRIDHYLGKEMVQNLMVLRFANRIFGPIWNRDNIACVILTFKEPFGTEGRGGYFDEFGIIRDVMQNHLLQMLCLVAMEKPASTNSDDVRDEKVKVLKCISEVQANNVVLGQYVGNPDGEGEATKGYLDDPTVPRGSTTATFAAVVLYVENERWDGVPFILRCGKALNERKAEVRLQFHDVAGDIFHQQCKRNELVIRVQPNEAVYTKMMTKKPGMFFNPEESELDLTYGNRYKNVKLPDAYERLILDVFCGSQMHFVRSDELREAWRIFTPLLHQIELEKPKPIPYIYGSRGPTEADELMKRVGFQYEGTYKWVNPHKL
Sequence of Ras and Rab interactor 1/Tyrosine-protein kinase ABL1 (P00519 whole entry): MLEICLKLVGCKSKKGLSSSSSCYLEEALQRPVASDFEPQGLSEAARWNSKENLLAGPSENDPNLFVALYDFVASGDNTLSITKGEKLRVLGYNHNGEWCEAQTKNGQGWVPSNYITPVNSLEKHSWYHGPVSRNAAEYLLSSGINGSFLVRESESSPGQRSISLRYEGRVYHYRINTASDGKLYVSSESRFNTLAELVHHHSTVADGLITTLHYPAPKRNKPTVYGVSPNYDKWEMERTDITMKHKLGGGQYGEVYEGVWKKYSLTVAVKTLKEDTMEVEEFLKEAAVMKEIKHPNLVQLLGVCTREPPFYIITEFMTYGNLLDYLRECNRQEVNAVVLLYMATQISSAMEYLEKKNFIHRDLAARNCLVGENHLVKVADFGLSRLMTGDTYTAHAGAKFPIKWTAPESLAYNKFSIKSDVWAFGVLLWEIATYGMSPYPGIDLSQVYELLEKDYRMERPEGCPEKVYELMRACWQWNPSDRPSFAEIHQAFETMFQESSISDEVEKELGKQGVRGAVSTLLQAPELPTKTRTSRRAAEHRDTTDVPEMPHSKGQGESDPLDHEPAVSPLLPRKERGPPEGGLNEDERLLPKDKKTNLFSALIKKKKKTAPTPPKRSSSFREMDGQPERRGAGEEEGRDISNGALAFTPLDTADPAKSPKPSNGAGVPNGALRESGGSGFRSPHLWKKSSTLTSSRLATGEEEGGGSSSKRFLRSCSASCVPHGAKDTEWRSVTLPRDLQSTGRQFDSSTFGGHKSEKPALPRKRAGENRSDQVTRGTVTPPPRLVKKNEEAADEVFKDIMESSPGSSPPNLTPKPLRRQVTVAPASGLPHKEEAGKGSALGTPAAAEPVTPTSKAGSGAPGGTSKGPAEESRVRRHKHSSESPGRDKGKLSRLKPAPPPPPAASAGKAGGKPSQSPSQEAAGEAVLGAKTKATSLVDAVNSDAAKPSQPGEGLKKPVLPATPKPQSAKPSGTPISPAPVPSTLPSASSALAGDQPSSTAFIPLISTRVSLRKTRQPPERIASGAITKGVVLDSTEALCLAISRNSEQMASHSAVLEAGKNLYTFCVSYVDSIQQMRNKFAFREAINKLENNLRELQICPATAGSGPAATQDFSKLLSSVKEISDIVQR
Sequence of Ras and Rab interactor 1/Tyrosine-protein kinase ABL1 (Q13671 whole entry): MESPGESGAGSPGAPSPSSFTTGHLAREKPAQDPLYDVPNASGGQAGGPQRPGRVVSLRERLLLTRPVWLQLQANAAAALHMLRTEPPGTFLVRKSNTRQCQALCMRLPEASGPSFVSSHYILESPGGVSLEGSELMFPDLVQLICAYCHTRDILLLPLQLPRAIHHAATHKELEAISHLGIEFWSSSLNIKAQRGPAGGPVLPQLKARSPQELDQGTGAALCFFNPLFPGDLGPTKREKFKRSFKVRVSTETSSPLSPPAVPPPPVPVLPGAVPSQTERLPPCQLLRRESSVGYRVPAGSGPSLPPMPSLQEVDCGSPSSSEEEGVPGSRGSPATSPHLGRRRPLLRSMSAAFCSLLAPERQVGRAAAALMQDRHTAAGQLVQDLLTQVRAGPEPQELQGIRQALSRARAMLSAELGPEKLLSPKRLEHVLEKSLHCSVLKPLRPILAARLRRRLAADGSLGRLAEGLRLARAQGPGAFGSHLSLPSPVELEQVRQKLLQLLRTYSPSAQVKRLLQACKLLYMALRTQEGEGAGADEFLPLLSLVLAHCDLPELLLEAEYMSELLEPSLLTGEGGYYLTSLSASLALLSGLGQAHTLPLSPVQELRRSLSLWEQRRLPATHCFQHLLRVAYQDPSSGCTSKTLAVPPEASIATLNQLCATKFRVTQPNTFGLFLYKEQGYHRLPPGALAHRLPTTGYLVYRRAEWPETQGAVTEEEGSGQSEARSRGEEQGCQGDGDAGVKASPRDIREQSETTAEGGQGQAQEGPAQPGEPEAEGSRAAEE
Sequence of Cytochrome P450 3A4 (P08684 whole entry): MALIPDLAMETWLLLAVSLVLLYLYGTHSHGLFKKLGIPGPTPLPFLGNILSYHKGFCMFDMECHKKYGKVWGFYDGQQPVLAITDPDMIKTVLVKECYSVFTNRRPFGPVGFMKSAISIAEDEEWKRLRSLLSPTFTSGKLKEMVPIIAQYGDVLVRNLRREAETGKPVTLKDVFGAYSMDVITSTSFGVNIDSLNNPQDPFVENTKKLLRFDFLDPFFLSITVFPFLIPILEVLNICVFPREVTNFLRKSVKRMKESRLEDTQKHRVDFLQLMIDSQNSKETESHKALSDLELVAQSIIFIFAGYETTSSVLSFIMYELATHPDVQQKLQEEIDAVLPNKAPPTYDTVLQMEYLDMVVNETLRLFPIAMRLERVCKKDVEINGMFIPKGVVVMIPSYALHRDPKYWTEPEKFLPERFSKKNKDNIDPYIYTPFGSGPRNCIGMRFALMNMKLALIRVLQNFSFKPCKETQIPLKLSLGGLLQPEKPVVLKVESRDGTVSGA
Sequence of Cytochrome P450 2C19 (P33261 whole entry): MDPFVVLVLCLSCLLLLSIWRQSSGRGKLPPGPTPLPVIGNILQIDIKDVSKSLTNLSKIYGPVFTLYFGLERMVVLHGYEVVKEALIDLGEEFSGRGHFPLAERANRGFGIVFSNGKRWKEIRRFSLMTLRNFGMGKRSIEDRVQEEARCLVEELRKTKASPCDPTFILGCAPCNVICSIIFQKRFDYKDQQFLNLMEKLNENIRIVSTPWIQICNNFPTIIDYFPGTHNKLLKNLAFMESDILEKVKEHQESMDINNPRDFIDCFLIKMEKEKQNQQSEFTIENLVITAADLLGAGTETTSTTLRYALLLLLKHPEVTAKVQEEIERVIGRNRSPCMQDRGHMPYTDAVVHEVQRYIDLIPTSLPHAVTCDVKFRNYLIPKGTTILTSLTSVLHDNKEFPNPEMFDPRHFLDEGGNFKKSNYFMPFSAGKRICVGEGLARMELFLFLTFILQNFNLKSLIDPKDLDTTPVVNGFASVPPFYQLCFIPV
Sequence of Cytochrome P450 2C9 (P11712 whole entry, the tested form may be a part): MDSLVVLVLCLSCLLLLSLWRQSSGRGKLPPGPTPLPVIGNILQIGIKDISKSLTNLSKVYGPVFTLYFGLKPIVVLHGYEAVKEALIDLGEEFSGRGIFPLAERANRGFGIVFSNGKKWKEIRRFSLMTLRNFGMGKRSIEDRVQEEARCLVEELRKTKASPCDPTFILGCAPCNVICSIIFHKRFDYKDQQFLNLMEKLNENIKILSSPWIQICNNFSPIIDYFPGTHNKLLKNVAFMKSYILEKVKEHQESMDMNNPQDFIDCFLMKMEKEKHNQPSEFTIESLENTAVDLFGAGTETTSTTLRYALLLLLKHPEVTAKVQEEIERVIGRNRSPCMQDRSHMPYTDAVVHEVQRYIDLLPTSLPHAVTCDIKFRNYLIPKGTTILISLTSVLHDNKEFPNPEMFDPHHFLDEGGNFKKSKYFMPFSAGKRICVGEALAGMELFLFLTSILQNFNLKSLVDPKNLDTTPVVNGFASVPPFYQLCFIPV
Sequence of Beta-2 adrenergic receptor (P07550 whole entry, the tested form may be a part): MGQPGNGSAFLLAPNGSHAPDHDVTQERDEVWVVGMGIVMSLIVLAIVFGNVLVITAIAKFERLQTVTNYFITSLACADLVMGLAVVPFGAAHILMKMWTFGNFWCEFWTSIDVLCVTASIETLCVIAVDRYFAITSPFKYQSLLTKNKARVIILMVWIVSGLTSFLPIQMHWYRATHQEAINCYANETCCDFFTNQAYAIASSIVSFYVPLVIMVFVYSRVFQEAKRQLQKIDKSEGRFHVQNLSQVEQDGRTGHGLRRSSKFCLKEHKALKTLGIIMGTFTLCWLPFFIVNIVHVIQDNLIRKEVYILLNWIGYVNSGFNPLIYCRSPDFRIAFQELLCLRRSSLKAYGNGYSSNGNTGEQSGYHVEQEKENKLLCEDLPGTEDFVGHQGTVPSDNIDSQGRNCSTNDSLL

For `CN(C)c1cc(NC(=O)CNC(C)(C)C)c2ccccc2n1`, the AC50 [1] was 16.4 µM (active).
For `COC(=O)C/C=C\[C@@H](C)[C@@H](/C=N\OC[C@@H](O)COCc1ccco1)NS(=O)(=O)c1ccc(C)cc1`, the AC50 (Cytochrome P450 2D6) was “inconclusive”.
For `CC[C@]1(O)C[C@H]2CN(CCc3c([nH]c4ccccc34)[C@](C(=O)OC)(c3cc4c(cc3OC)N(C=O)[C@H]3[C@@](O)(C(=O)OC)[C@H](OC(C)=O)[C@@]5(CC)C=CCN6CC[C@]43[C@H]65)C2)C1`, the AC50 (Cytochrome P450 2D6) was “inconclusive”.
For `CC1CCc2[nH]c3ccc(C(=O)N(C)CC(=O)Nc4ccccc4C(F)(F)F)cc3c2C1` (stereo unspecified), the IC50 [2] was > 80 µM (inactive).
In the case of `CCOC(=O)CN1C(=O)NC2NC(=O)NC21` (stereo unspecified), the IC50 [3] is reported as 23.8 µM (inactive).
With `O=C(O)COc1ccccc1/C=C1\C(=O)NC(=O)N(CCC2=CCCCC2)C1=O` the IC50 (Genome polyprotein) was > 100 µM (active).
For `COCCc1ncc(CN2CCC(C(=O)Nc3ccc(-n4cccn4)cc3)CC2)cn1`, the EC50 [4] was 1.29 µM (active).
For `CC(=O)c1cc(NC(=O)c2cccc(C(F)(F)F)c2)c(=O)oc1/C=C/N(C)C`, the EC50 [5] was > 300 µM (not active), the EC50 [6] was > 300 µM (inconclusive) and the EC50 [7] was > 99 µM (inactive). The EC50 [8] was 22.2 µM (inactive), the EC50 [9] was 5.91 µM (active) and the AC50 (Cytochrome P450 3A4) was 6.31 µM (inconclusive). For the same compound, the AC50 (Cytochrome P450 2C9) was “inconclusive”.
With `O=C(NCCCn1ccnc1)C(=O)NCC(c1ccco1)N1CCN(c2ccc(F)cc2)CC1` (stereo unspecified) the AC50 [10] was 99.3 µM (active).
For `Cc1cc(C)cc(NC(S)=NC2CC3CCC(C2)N3Cc2ccco2)c1` (stereo unspecified), the AC50 (Cytochrome P450 2C19; read-out: AC50) was 35.5 µM (inconclusive) and the AC50 (Cytochrome P450 2C9) was “inconclusive”.
For `CCC1(CC)C(=O)C2=C3C1[C@H](C(=O)OC)C=C(C(=O)OC)C[C@H]3n1c(=O)n(-c3ccccc3)c(=O)n1[C@H]2C` (stereo partly specified), the IC50 [3] was 22.4 µM (inactive).
In the case of `COc1ccc(-c2cc(-c3ccc(Cl)cc3)c(C#N)c(SCC(=O)O)n2)cc1`, the IC50 (Genome polyprotein) is reported as 50 µM (active).
With `N#Cc1cc(-c2ccccc2)nnc1Oc1ccccc1Cl` the EC50 [4] was 0.173 µM (active).
In the case of `CCc1cc(-c2n[nH]c(C)c2-c2nc3ccccc3n2C)c(O)cc1O`, the IC50 [2] is reported as > 80 µM (inactive) and the AC50 (Paired box protein Pax-8) is reported as 40.6 µM (active).
With `CCOC(=O)c1cnc2c(CC)cccc2c1NCCCN1CCOCC1` the AC50 [1] was 21.6 µM (active).
With `Cc1cc(C)n(-c2nc3c(c(=O)[nH]c(=O)n3C)n2CC(C)C)n1` the AC50 (Cytochrome P450 2C19) was “inconclusive” and the AC50 (Cytochrome P450 2D6) was “inconclusive”.
With `COC(=O)C/C=C\[C@@H](C)[C@@H](/C=N\OC[C@@H](O)[C@H]1O[C@H]2OC(C)(C)O[C@H]2[C@@H]1O)OC` the AC50 (Cytochrome P450 3A4) was 5.01 µM (inconclusive) and the AC50 (Cytochrome P450 2D6) was “inconclusive”.
In the case of `CCOC(=O)CCCCCC(=O)Nc1ccc2c(c1)C(=O)N([C@H](C)CO)C[C@H](C)[C@@H](CN(C)C(=O)Nc1ccccc1)OCCCC[C@@H](C)O2`, the IC50 [3] is reported as 30.8 µM (inactive).
In the case of `Cc1ccc2nc(SCC(=O)N/N=C/c3ccco3)cc(C)c2c1`, the IC50 [2] is reported as 41.8 µM (inactive).
With `C/C(Cn1nnc([N+](=O)[O-])n1)=N\NC(=O)c1ccc(Cl)c(Cl)c1` the EC50 (HEK293 [11]) was > 20 µM (inactive), the IC50 (HEK293 [12]) was > 20 µM (inactive) and the IC50 (HEK293 [13]) was 18.5 µM (active). For the same compound, the EC50 [14] was 4.92 µM (active), the IC50 (HEK293 [15]) was > 20 µM (inactive) and the EC50 [16] was 0.184 µM (active). For the same compound, the IC50 (HEK293 [17]) was > 20 µM (inactive), the EC50 [18] was > 60 µM (not active) and the IC50 [2] was > 80 µM (inactive).
With `COc1ccc([N+](=O)[O-])cc1/C=N/NC(=O)CNC(=O)c1cccc(F)c1` the IC50 (Fatty acid synthase [19]) was 10.3 µM (active), the AC50 [10] was 87.2 µM (active) and the IC50 (Fatty acid synthase [20]) was 6.76 µM (active).

Reference: ChEMBL document CHEMBL1201862, “PubChem BioAssay data set” (2004)
